Test results published in PubChem BioAssay (NCI).
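GI50 marks 50% less growth. TGI marks complete inhibition of growth.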

What was measured:
Assay in all cases: NCI anticancer screen, dose series, 384-well format
786-0 renal = system: 786-0 renal
A498 renal = system: A498 renal
A549 NSCLC = system: A549 NSCLC
ACHN renal = system: ACHN renal
BT-549 breast = system: BT-549 breast
CAKI-1 renal = system: CAKI-1 renal
CCRF-CEM leukemia = system: CCRF-CEM leukemia
COLO 205 colon = system: COLO 205 colon
DU-145 prostate = system: DU-145 prostate
EKVX NSCLC = system: EKVX NSCLC
HCC-2998 colon = system: HCC-2998 colon
HCT-116 colon = system: HCT-116 colon
HCT-15 colon = system: HCT-15 colon
HL-60(TB) leukemia = system: HL-60(TB) leukemia
HOP-62 NSCLC = system: HOP-62 NSCLC
HOP-92 NSCLC = system: HOP-92 NSCLC
HS 578T breast = system: HS 578T breast
HT29 colon = system: HT29 colon
IGROV1 ovarian = system: IGROV1 ovarian
K-562 leukemia = system: K-562 leukemia
KM12 colon = system: KM12 colon
LOX IMVI melanoma = system: LOX IMVI melanoma
M14 melanoma = system: M14 melanoma
MALME-3M melanoma = system: MALME-3M melanoma
MCF7 breast = system: MCF7 breast
MDA-MB-231 breast = system: MDA-MB-231 breast
MDA-MB-435 melanoma = system: MDA-MB-435 melanoma
MDA-MB-468 breast = system: MDA-MB-468 breast
MOLT-4 leukemia = system: MOLT-4 leukemia

`CCN(Cc1cc(Nc2nc(C)cn3c(-c4cn[nH]c4)cnc23)sn1)C(C)(C)CO` gave a GI50 ([…]-0 renal) of 45.7 nM, a TGI (786-0 renal) of 370 nM and a GI50 (A498 renal) of 13.2 nM. The TGI (A498 renal) was 299 nM, the GI50 (A549 NSCLC) was 42.3 nM and the TGI (A549 NSCLC) was 1450 nM. It also gave a GI50 (ACHN renal) of 33.4 nM, a TGI (ACHN renal) of 10600 nM and a GI50 (BT-549 breast) of 11.6 nM. For the same compound, the TGI (BT-549 breast) was 50.4 nM, the GI50 (CAKI-1 renal) was < 10 nM and the TGI (CAKI-1 renal) was 42.1 nM. The GI50 (CCRF-CEM leukemia) was < 10 nM, the TGI (CCRF-CEM leukemia) was < 10 nM and the GI50 (COLO 205 colon) was < 10 nM. It also gave a TGI (COLO 205 colon) of 100 nM, a GI50 (DU-145 prostate) of 21.3 nM and a TGI (DU-145 prostate) of 1270 nM. It also gave a GI50 (EKVX NSCLC) of 32.1 nM, a TGI (EKVX NSCLC) of 1500 nM and a GI50 (HCC-2998 colon) of 99.9 nM. For the same compound, the TGI (HCC-2998 colon) was 362 nM, the GI50 (HCT-116 colon) was < 10 nM and the TGI (HCT-116 colon) was 1400 nM. The GI50 (HCT-15 colon) was 23.2 nM, the TGI (HCT-15 colon) was 1560 nM and the GI50 (HL-60(TB) leukemia) was < 10 nM. For the same compound, the TGI (HL-60(TB) leukemia) was < 10 nM, the GI50 (HOP-62 NSCLC) was 21 nM and the TGI (HOP-62 NSCLC) was 178 nM. The GI50 (HOP-92 NSCLC) was 32.3 nM, the TGI (HOP-92 NSCLC) was 178 nM and the GI50 (HS 578T breast) was 15.6 nM. The TGI (HS 578T breast) was 39 nM, the GI50 (HT29 colon) was 74.1 nM and the TGI (HT29 colon) was 490 nM. For the same compound, the GI50 (IGROV1 ovarian) was 15.5 nM, the TGI (IGROV1 ovarian) was 372 nM and the GI50 (K-562 leukemia) was < 10 nM. The TGI (K-562 leukemia) was < 10 nM, the GI50 (KM12 colon) was 15.4 nM and the TGI (KM12 colon) was 1040 nM. The GI50 (LOX IMVI melanoma) was 27.6 nM, the TGI (LOX IMVI melanoma) was 134 nM and the GI50 (M14 melanoma) was < 10 nM. The TGI (M14 melanoma) was 142 nM, the GI50 (MALME-3M melanoma) was 26.6 nM and the TGI (MALME-3M melanoma) was 1130 nM. For the same compound, the GI50 (MCF7 breast) was 139 nM, the TGI (MCF7 breast) was 1580 nM and the GI50 (MDA-MB-231 breast) was 30 nM. It also gave a TGI (MDA-MB-231 breast) of 830 nM, a GI50 (MDA-MB-435 melanoma) of 71.2 nM and a TGI (MDA-MB-435 melanoma) of 242 nM. For the same compound, the GI50 (MDA-MB-468 breast) was < 10 nM, the TGI (MDA-MB-468 breast) was < 10 nM and the GI50 (MOLT-4 leukemia) was < 10 nM. For the same compound, the TGI (MOLT-4 leukemia) was < 10 nM.
